Assay results from patent US4985547A, “External skin care preparation” (Kao Corporation, priority 1987, dated 1991).

Columns and labels:
skin roughness = experiment: Score of skin roughness, visual ranking after two-week coating on cheeks; type: in vivo, women; conditions: compound 1.0 wt. %, average, 0 = none, 4 = severe
From the text: (§1) Compounds Ia1 -Ia18 prepared respectively in Referential Examples 1, 2 and 3 and following the procedures of these referential examples, compounds Ib1 -Ib5 prepared respectively in Referential Example 4 and following the procedure of the referential example, compounds Id1 -Id5 prepared respectively in Referential Example 5 and following the procedure of the referential example, compounds Ie1 -Ie4 prepared respectively in Referential Examples 6-9, and conventional compounds Ic1 -Ic13, Ie5 -Ie14 and II1 -II12 were used separately. Mixtures (Invention Products 1), each of which had been formulated by mixing vaseline and the compound (I or II) at a weight ratio of 3:1, and vaseline (Comparative Product 1) were evaluated in skin conductance and skin roughness by the following methods.
(§2) Chosen as volunteers in winter were 10 women of 20-50 years of old who had skin roughness on their both cheeks. Different external skin care preparations were coated separately on the left and right cheeks of each volunteer for two weeks. On the following day of the completion of the two-week coating test, tests were conducted with respect to the following properties.
Skin roughness was observed visually and ranked in accordance with the following standard. Each score was indicated by an average value.
Score Ranking of skin roughness
0 No skin roughness was observed.
1 Slight skin roughness was observed.
2 Skin roughness was observed.
3 Rather severe skin roughness was observed.
4 Severe skin roughness was observed.
Using separately the compounds used in Example 1, external skin care preparations (emulsified cosmetic preparations) of their corresponding compositions shown below in Table 2 were formulated. Their effects for the improvement of skin roughness were evaluated in the same manner as in Example 1.

horny layer = experiment: Skin conductance (water content of horny layer) after two-week coating on cheeks; type: in vivo, women; set-up: key: conductance meter reading; ≤5 = severe roughness, ≥20 = no roughness; conditions: Invention Product 1: vaseline and compound 3:1 by weight; two weeks; 20° C., 40% humidity; 5 and smaller = severe roughness, 20 or greater = no substantial roughness
From the text: as §1, §2
After washing the face with warm water of 37° C., each volunteer was allowed to rest for 20 minutes in a room which was air-conditioned at 20° C. and 40% humidity. The water content of their horny layer was measured by a skin conductance meter (manufactured by IBS Company). A smaller conductance value indicates greater skin roughness. Conductance values of 5 and smaller indicate severe skin roughness. On the contrary, no substantial skin roughness is observed where this value is 20 or greater.

[1] = Invention product 2: emulsified cosmetic, glyceryl ether 2.0 wt. %
[2] = Invention product 3: emulsified cosmetic, arginine monocetylphosphate 2.0 wt. %
[3] = Invention product 4: emulsified cosmetic, polyoxyethylene (20) sorbitan stearate 1.0 and sorbitan monostearate 1.0 wt. %

In the case of CCCCCCCCCCCCCCCCOCC(O)CN(C(=O)CCCCCCCCCCCCCCC)C(C(=O)O)C(C)C (centres unmarked) [Compound Ic7], the “Score of skin roughness” value (skin roughness; [1]) is reported as 0.6, the “Score of skin roughness” value (skin roughness; [2]) is reported as 0.8 and the “Score of skin roughness” value (skin roughness; [3]) is reported as 1.1. For the same compound, the Skin conductance (horny layer) was 15.

With CCCCCCCCCCCCCCCCOCC(O)CN(CCO[C@@H]1O[C@H](CO)[C@@H](O[C@@H]2O[C@H](CO)[C@H](O)[C@H](O)[C@H]2O)[C@H](O)[C@H]1O)C(=O)CCCCCCCCCCCCCCC (stereo partly drawn) [Compound Ie2, N-(3-hexadecyloxy-2-hydroxypropyl)-N-[2-O-(4-β-D-galactopyranosyl-β-D-glucopyranosyl)ethyl]hexadecanamide] the “Score of skin roughness” value (skin roughness; [1]) was 0.4, the “Score of skin roughness” value (skin roughness; [2]) was 0.5 and the “Score of skin roughness” value (skin roughness; [3]) was 0.8. It also gave a Skin conductance (horny layer) of 29.

With CCCCCCCCCCCCCCCCOCC(O)CN(C(=O)CCCCCCCCCCCCCCC)C(Cc1c[nH]cn1)C(=O)O (centres unmarked) [Compound Ic12] the “Score of skin roughness” value (skin roughness; [1]) was 1.0, the “Score of skin roughness” value (skin roughness; [2]) was 1.3 and the “Score of skin roughness” value (skin roughness; [3]) was 1.6. It also gave a Skin conductance (horny layer) of 11.

With CCCCCCCCCCOCC(O)CN(CCO)CC(O)COCCCCCCCCCC (centres unmarked) [Compound II2] the “Score of skin roughness” value (skin roughness; [1]) was 0.8, the “Score of skin roughness” value (skin roughness; [2]) was 1.0 and the “Score of skin roughness” value (skin roughness; [3]) was 1.2. The Skin conductance (horny layer) was 8.

CCCCCCCCCCCCCCCCCC(=O)N(CCO)CC(O)CCCCCCCCCC (centres unmarked) [Compound Id4] was tested, and the “Score of skin roughness” value (skin roughness; [1]) was 0.3, the “Score of skin roughness” value (skin roughness; [2]) was 0.5 and the “Score of skin roughness” value (skin roughness; [3]) was 0.8. It also gave a Skin conductance (horny layer) of 17.

In the case of CCCCCCCCCCCCCCCCOCC(O)CN(CCOC1O[C@H](CO)[C@@H](O)[C@H](O)[C@H]1O)C(=O)CCCCCCCCCCCCCCC (some centres unmarked) [Compound Ie1, N-(3-hexadecyloxy-2-hydroxypropyl)-N-(2-O-glucopyranosyl)ethylhexadecanamide], the “Score of skin roughness” value (skin roughness; [1]) is reported as 0.4, the “Score of skin roughness” value (skin roughness; [2]) is reported as 0.6 and the “Score of skin roughness” value (skin roughness; [3]) is reported as 0.9. The Skin conductance (horny layer) was 25.

In the case of CCCCCCCC/C=C\CCCCCCCCOCC(O)CN(CCOP(=O)([O-])OCC[N+](C)(C)C)C(=O)CCCCCCCCCCCCCCCCC (centres unmarked) [Compound Ie12], the “Score of skin roughness” value (skin roughness; [1]) is reported as 0.9, the “Score of skin roughness” value (skin roughness; [2]) is reported as 0.9 and the “Score of skin roughness” value (skin roughness; [3]) is reported as 1.5. The Skin conductance (horny layer) was 13.

For CCCCCCCCCCCCCCCCOCC(O)CN(CC(O)CO)C(=O)CCCCCCCCCCCCCCC (centres unmarked) [Compound Ia10, N-(3-hexadecyloxy-2-hydroxypropyl)-N-2,3-dihydroxypropylhexadecanamide], the “Score of skin roughness” value (skin roughness; [1]) was 0.1, the “Score of skin roughness” value (skin roughness; [2]) was 0.3 and the “Score of skin roughness” value (skin roughness; [3]) was 0.6. It also gave a Skin conductance (horny layer) of 22.

For CCCCCCCCCCCCCCCCOCC(O)CN(CCO)CC(O)COCCCCCCCCCCCCCCCC (centres unmarked) [Compound II1], the “Score of skin roughness” value (skin roughness; [1]) was 0.1, the “Score of skin roughness” value (skin roughness; [2]) was 0.3 and the “Score of skin roughness” value (skin roughness; [3]) was 0.8. For the same compound, the Skin conductance (horny layer) was 18.

With CCCCCCCCCCCCCCCCOCC(CN(CCO)C(=O)CCCCCCCCCCCCCCC)OP(=O)([O-])OCC[N+](C)(C)C (centres unmarked) [Compound Ie13] the “Score of skin roughness” value (skin roughness; [1]) was 0.9, the “Score of skin roughness” value (skin roughness; [2]) was 1.1 and the “Score of skin roughness” value (skin roughness; [3]) was 1.5. The Skin conductance (horny layer) was 11.

With CCCCCCCCCCOCC(O)CN(CCOP(=O)(O)OCCNCCc1ccccc1)C(=O)CCCCCCCCC (centres unmarked) [Compound Ie10] the “Score of skin roughness” value (skin roughness; [1]) was 1.0, the “Score of skin roughness” value (skin roughness; [2]) was 1.2 and the “Score of skin roughness” value (skin roughness; [3]) was 1.8. The Skin conductance (horny layer) was 11.

With CCCCCCCCCCCCCCCCOCC(O)CN(C(=O)CCCCCCCCCCCCCCC)C(C)C(=O)O (centres unmarked) [Compound Ic5] the “Score of skin roughness” value (skin roughness; [1]) was 0.8, the “Score of skin roughness” value (skin roughness; [2]) was 1.0 and the “Score of skin roughness” value (skin roughness; [3]) was 1.3. For the same compound, the Skin conductance (horny layer) was 13.

For CCCCCCCCCCCCCCOCC(O)CN(C(=O)CCCCCCCCC)C(CO)(CO)CO (centres unmarked) [Compound Ia17], the “Score of skin roughness” value (skin roughness; [1]) was 0.2, the “Score of skin roughness” value (skin roughness; [2]) was 0.4 and the “Score of skin roughness” value (skin roughness; [3]) was 0.7. The Skin conductance (horny layer) was 20.

With CCCCCCCCCCCCCCCCCC(=O)N(CCOP(=O)([O-])OCC[N+](CC)(CC)CC)CC(O)COCCCCCCCCCCCCCC (centres unmarked) [Compound Ie9] the “Score of skin roughness” value (skin roughness; [1]) was 0.6, the “Score of skin roughness” value (skin roughness; [2]) was 0.6 and the “Score of skin roughness” value (skin roughness; [3]) was 1.0. It also gave a Skin conductance (horny layer) of 18.

For CCCCCCCCCCCCCCCCCCOCC(O)CN(CCOCCO)C(=O)CCCCCCCCC (centres unmarked) [Compound Ib3], the “Score of skin roughness” value (skin roughness; [1]) was 0.6, the “Score of skin roughness” value (skin roughness; [2]) was 0.9 and the “Score of skin roughness” value (skin roughness; [3]) was 1.1. For the same compound, the Skin conductance (horny layer) was 14.

CCCCCCCCCCCCCCCCOCC(O)CN(CC(=O)O)CC(O)COCCCCCCCCCCCCCCCC (centres unmarked) [Compound II9] was tested, and the “Score of skin roughness” value (skin roughness; [1]) was 0.1, the “Score of skin roughness” value (skin roughness; [2]) was 0.3 and the “Score of skin roughness” value (skin roughness; [3]) was 0.9. For the same compound, the Skin conductance (horny layer) was 17.

For CCCCCCCCCCCCCCCCOCC(O)CN(C(=O)CCCCCCCCCCCCCCC)C(Cc1c[nH]c2ccccc12)C(=O)O (centres unmarked) [Compound Ic13], the “Score of skin roughness” value (skin roughness; [1]) was 1.1, the “Score of skin roughness” value (skin roughness; [2]) was 1.4 and the “Score of skin roughness” value (skin roughness; [3]) was 1.7. It also gave a Skin conductance (horny layer) of 10.

For CCCCCCCCCCCCCCCCCCOCC(O)CN(CCO)CC(O)COCCCCCCCCCC (centres unmarked) [Compound II3], the “Score of skin roughness” value (skin roughness; [1]) was 0.5, the “Score of skin roughness” value (skin roughness; [2]) was 0.8 and the “Score of skin roughness” value (skin roughness; [3]) was 1.1. The Skin conductance (horny layer) was 11.

In the case of CCCCCCCCCCCCCCCCOCC(O)CN(CCOP(=O)(O)OCCNC)C(=O)CCCCCCCCCCCCCCC (centres unmarked) [Compound Ie6], the “Score of skin roughness” value (skin roughness; [1]) is reported as 0.8, the “Score of skin roughness” value (skin roughness; [2]) is reported as 0.9 and the “Score of skin roughness” value (skin roughness; [3]) is reported as 1.4. It also gave a Skin conductance (horny layer) of 16.

In the case of CCCCCCCCCCOCC(O)CN(CC(O)COCCCCCCCCCC)C(C)=O (centres unmarked) [Compound II10], the “Score of skin roughness” value (skin roughness; [1]) is reported as 0.8, the “Score of skin roughness” value (skin roughness; [2]) is reported as 1.1 and the “Score of skin roughness” value (skin roughness; [3]) is reported as 1.2. The Skin conductance (horny layer) was 9.

CCCCCCCCCCCCCCCCCCOCC(O)CN(CC(O)COCCCCCCCCCCCCCCCCCC)C(C)=O (centres unmarked) [Compound II12] was tested, and the “Score of skin roughness” value (skin roughness; [1]) was 0.2, the “Score of skin roughness” value (skin roughness; [2]) was 0.4 and the “Score of skin roughness” value (skin roughness; [3]) was 0.8. The Skin conductance (horny layer) was 20.

With CCCCCCCCCCCCCCCCCCOCC(O)CN(C(=O)CCCCCCCCCCCCCCCCC)C(C)(C)CO (centres unmarked) [Compound Ia15] the “Score of skin roughness” value (skin roughness; [1]) was 0.5, the “Score of skin roughness” value (skin roughness; [2]) was 0.7 and the “Score of skin roughness” value (skin roughness; [3]) was 1.0. It also gave a Skin conductance (horny layer) of 13.

For CCCCCCCCCCCCCCCCOCC(O)CN(C(=O)CCCCCCCCCCCCCCC)C(Cc1ccccc1)C(=O)O (centres unmarked) [Compound Ic6], the “Score of skin roughness” value (skin roughness; [1]) was 0.9, the “Score of skin roughness” value (skin roughness; [2]) was 1.2 and the “Score of skin roughness” value (skin roughness; [3]) was 1.5. The Skin conductance (horny layer) was 12.

In the case of CCCCCCCCCCCCCCCCCCOCC(O)CN(CCOCCO)C(=O)CCCCCCCCCCCCCCCCC (centres unmarked) [Compound Ib5], the “Score of skin roughness” value (skin roughness; [1]) is reported as 0.2, the “Score of skin roughness” value (skin roughness; [2]) is reported as 0.4 and the “Score of skin roughness” value (skin roughness; [3]) is reported as 0.8. The Skin conductance (horny layer) was 23.

With CCCCCCCCCCOCC(O)CN(CCCO)C(=O)CCCCCCCCC (centres unmarked) [Compound Ia3] the “Score of skin roughness” value (skin roughness; [1]) was 0.7, the “Score of skin roughness” value (skin roughness; [2]) was 1.0 and the “Score of skin roughness” value (skin roughness; [3]) was 1.3. It also gave a Skin conductance (horny layer) of 10.

In the case of CCCCCCCCCCCCCCCCCCOCC(O)CN(CC(C)O)C(=O)CCCCCCCCCCCCCCCCC (centres unmarked) [Compound Ia13], the “Score of skin roughness” value (skin roughness; [1]) is reported as 0.5, the “Score of skin roughness” value (skin roughness; [2]) is reported as 0.7 and the “Score of skin roughness” value (skin roughness; [3]) is reported as 1.1. The Skin conductance (horny layer) was 13.
